Measured values published in patent publication US9045390B2, “Haloalkylmethyleneoxyphenyl-substituted ketoenols” (Bayer CropScience AG, priority 2009, dated 2015).
Like-named read-outs stand apart in the source and are kept apart here.

Key:
[1] = tested on: cotton aphid (Aphis gossypii); assay: Aphis gossypii test (with ammonium salts and penetration enhancers); type: in vivo; details: for Kill rate/% after 6 days: active ingredient alone, cotton plants
Description: Aphis gossypsi Test [table] To prepare an appropriate active ingredient preparation, 1 part by weight of active ingredient is mixed with the stated amounts of solvent and emulsifier, and the concentrate is diluted to the desired concentration with emulsifier-containing water. […] Cotton plants (Gossypium hirsutum) heavily infested by the cotton aphid (Aphis gossypii) are treated by spraying to runoff point with the active ingredient preparation of the desired concentration.

[2] = log P determination by HPLC/LC-MS on reversed-phase column (C 18); type: physicochemical; details: pH 2.7, 0.1% aqueous formic acid and acetonitrile; for chromatographic logP: reversed-phase column (C 18), pH 2.7, LC-MS acidic range, read-out: log P (HCOOH)
Description: The log P values reported in the above tables and preparation examples are determined according to EEC Directive 79/831 Annex V.A8 by HPLC (High Performance Liquid Chromatography) on a reversed-phase column (C 18). Temperature: 43° C.
The determination is effected in the acidic range at pH 2.3 with 0.1% aqueous phosphoric acid and acetonitrile as eluent; linear gradient from 10% acetonitrile to 95% acetonitrile.
The determination by LC-MS in the acidic range is effected at pH 2.7 with 0.1% aqueous formic acid and acetonitrile (contains 0.1% formic acid) as the eluent; linear gradient from 10% acetonitrile to 95% acetonitrile.
The determination by LC-MS in the neutral range is effected at pH 7.8 with 0.001 molar aqueous ammonium hydrogen carbonate solution and acetonitrile as the eluent; linear gradient from 10% acetonitrile to 95% acetonitrile.
The calibration is effected with unbranched alkane-2-ones (with 3 to 16 carbon atoms), the log P values of which are known (determination of log P values on the basis of the retention times by linear interpolation between two successive alkanones).

cereals [3] = assay: Container trials with cereals in a greenhouse, mefenpyr 1 day before herbicide application; type: in vivo
Description: (§1) Seeds of monocotyledonous and dicotyledonous weed and crop plants are placed in sandy loam in wood fibre pots, covered with soil and cultivated in a greenhouse under good growth conditions. Two to three weeks after sowing, the test plants are treated at the one-leaf stage. The test compounds, formulated as wettable powders (WP), are sprayed onto the green parts of the plants in different dosages with a water application rate of 600 l/ha (converted), with 0.2% added wetting agent. After the test plants have been kept in the greenhouse under optimal growth conditions for about three weeks, the effect of the preparations is assessed visually by comparison to untreated controls (herbicidal effect in per cent: 100% effect=the plants have died, 0% effect=like control plants).
(§2) If there is to be an additional test as to whether safeners can improve the plant compatibility of test substances in the case of crop plants, the following options are used for applying the safeners: • Seeds of the crop plants are, before sowing, dressed with safener substance (the amount of safener stated in per cent, based on the weight of the seed) • Before the application of the test substances, the crop plants are sprayed with the safener at a certain application rate per hectare (usually one day before the application of the test substances) • The safener is applied together with the test substance as a tankmix (the amount of safener is stated in g/ha or as a ratio, based on the herbicide).
Container Trials with Cereals in a Greenhouse
Mefenpyr 1 Day Before Herbicide Application

[4] = tested on: green peach aphid (Myzus persicae); assay: Enhancement of activity by ammonium/phosphonium salts with penetration enhancers: Myzus persicae test; type: in vivo; details: 0.8 ppm
Description: Enhancement of Activity by Ammonium/Phosphonium Salts in Combination with Penetration Enhancers Myzus persicae Test [table] To prepare an appropriate active ingredient preparation, 1 part by weight of active ingredient is mixed with the stated amount of solvent and emulsifier, and the concentrate is diluted to the desired concentration with water. […] Bell pepper plants (Capsicum annuum) heavily infested by the green peach aphid (Myzus persicae) are treated by spraying to runoff point with the active ingredient preparation of the desired concentration.

cereals [5] = assay: Container trials with cereals in a greenhouse, mefenpyr 1 day before herbicide application; type: in vivo; details: 10 days after application, 12.5 g a.i./ha
Maize (Arsenal) = assay: Container tests with maize-soya-cotton in a greenhouse, cyprosulfamide 1 day before herbicide application; type: in vivo
Description: as §1, §2
(§3) Container Tests with Maize-Soya-Cotton in a Greenhouse
(§4) Cyprosulfamide 1 Day Before Herbicide Application

Maize (Cecilia) = type: in vivo
Description: as §1, §2, §3, §4

[6] = 28 days after application, 12.5 g a.i./ha
[7] = 28 days after application, 25 g a.i./ha
[8] = 28 days after application, 50 g a.i./ha

## COC1CCC2(CC1)NC(=O)C(c1c(C)ccc(OCC(F)(F)F)c1C)=C2O (stereo not drawn) [Example I-1-a-29]
[1]; 4 ppm
  Kill rate/% after 6 days +AS (1000 ppm): 15%
  Kill rate/% after 6 days +RME (1000 ppm): 80%
  Kill rate/% after 6 days +RME +AS (1000 ppm each): 95%
  Kill rate/% after 6 days: 10%

## Cc1ccc(OCC(F)(F)F)cc1C1=C(O)C2(CCCC2)OC1=O [Example I-2-a-1]
[2]; LC-MS acidic range
  log P (HCOOH): 2.45
[2]
  chromatographic logP: 2.59

## Cc1cc(OCC(F)(F)F)cc(C)c1CC(=O)O [XXXI-1, 2,6-Dimethyl-4-trifluoroethoxyphenylacetic acid]
[2]
  chromatographic logP: 2.51

## CCCOC1CCCC2(C1)NC(=O)C(c1c(C)cc(OCC(F)(F)F)cc1C)=C2O (stereo not drawn) [Example I-1-a-19]
Cereals [3]; Summer barley, 28 days after application, 25 g a.i./ha
  Summer barley observed (%): 70%
Cereals [3]; [6]
  Summer wheat observed (%): 10%
Cereals [3]; [7]
  Summer wheat observed (%): 20%
Cereals [3]; [8]
  Summer wheat observed (%): 70%
Cereals [3]; 28 days after application, 100 g a.i./ha
  Summer wheat observed (%): 85%

## CO[C@H]1CC[C@]2(CC1)NC(=O)C(c1c(C)cc(OCC(F)(F)F)cc1C)=C2OC(=O)C(C)C [Example I-1-b-2]
Cereals [3]; in vivo
  Summer barley observed (%): 50%

## CCOC(=O)C1(OC(=O)Cc2c(C)cc(OCC(F)(F)F)cc2C)CCOCC1 [III-1]
[2]
  chromatographic logP: 3.78

## CCCOC1CCCC2(C1)NC(=O)C(c1c(C)cc(OCC(F)(F)F)cc1CC)=C2O (stereo not drawn) [Example I-1-a-14]
Cereals [3]; [6]
  Summer wheat observed (%): 93%
Cereals [3]; [7]
  Summer wheat observed (%): 99%
Cereals [3]; [8]
  Summer wheat observed (%): 100%

## CCc1cc(OCC(F)(F)F)cc(C)c1C1=C(O)C2(CCC(C)(OC)CC2)NC1=O (stereo not drawn) [Example I-1-a-37]
Cereals [3]; [6]
  Summer wheat observed (%): 70%

## COC1CCC2(CC1)NC(=O)C(c1c(C)cc(OCC(F)(F)F)cc1C)=C2O (stereo not drawn) [Example I-1-a-25]
Cereals [3]; [6]
  Summer wheat observed (%): 70%
[4]; +AS (1000 ppm)
  Kill rate/% after 6 days +AS (1000 ppm): 0%
[4]; +RME (1000 ppm)
  Kill rate/% after 6 days +RME (1000 ppm): 40%
[4]; +RME +AS (1000 ppm each)
  Kill rate/% after 6 days +RME +AS (1000 ppm each): 55%
[4]; active ingredient alone, bell pepper plants
  Kill rate/% after 6 days: 0%
[1]; 0.8 ppm
  Kill rate/% after 6 days +AS (1000 ppm): 35%
  Kill rate/% after 6 days +RME (1000 ppm): 20%
  Kill rate/% after 6 days +RME +AS (1000 ppm each): 85%
  Kill rate/% after 6 days: 0%
Cereals [5]
  Summer wheat observed (%): 40%
Maize (Arsenal); 12.5 g a.i./ha
  28 days after application Maize (Arsenal) observed (%): 5%
Maize (Arsenal); 25 g a.i./ha
  28 days after application Maize (Arsenal) observed (%): 15%
Maize (Arsenal); 50 g a.i./ha
  28 days after application Maize (Arsenal) observed (%): 75%
Maize (Arsenal); 100 g a.i./ha
  28 days after application Maize (Arsenal) observed (%): 100%
Maize (Cecilia); 12.5 g a.i./ha
  28 days after application Maize (Cecilia) observed (%): 0%
Maize (Cecilia); 25 g a.i./ha
  28 days after application Maize (Cecilia) observed (%): 10%
Maize (Cecilia); 50 g a.i./ha
  28 days after application Maize (Cecilia) observed (%): 20%
Maize (Cecilia); 100 g a.i./ha
  28 days after application Maize (Cecilia) observed (%): 35%
